Experimental data taken from EP0320095A2, “Bilirubin degrading enzymes” (HEALTH & RESEARCH SERVICES INC., priority 1987, dated 1989).
Each block holds one molecule with its values, some of them ahead of it.

Assays:
lime enzyme preparation [1] = assay: Effects of common enzyme cofactors on the lime enzyme; type: biochemical, Citrus aurantifolia; details: 1 mM final concentration
Protocol: (§1) For the orange enzyme preparation, however, 1mM ATP inhibited the activity by almost 50%.

[2] = system: orange enzyme preparation; assay: Effects of common enzyme cofactors on the orange enzyme; type: biochemical, Citrus sinensis; details: 1mM
Protocol: as §1

lime enzyme preparation [3] = assay: Effect of common blood components on the lime enzyme reaction; type: biochemical, Citrus aurantifolia
Protocol: The bilirubin-degrading assay as described in Example 2 was carried out using a lime enzyme preparation obtained as described in Example 1. Urate (at either 1.2 mM or 297 µM) and creatinine (88.4 and 176.8 µM) in a serum-based matrix had no effect on either the rate or extent of bilirubin degradation by the Citrus enzyme. […] Tests that are interfered severely by bilirubin include e.g. uric acid, cholesterol, glucose, triglycerides, to mention just a few (See for example, Spain and Wu, Clin. Chem. 32:518, 1986). Also, in practice, one will use much higher levels of the enzyme than those used here (5-10 µL/assay, representing about 0.1-0.2 mg protein). In such cases, the effects on initial rates will most likely be overcome or reduced to well within tolerable limits.

[4] = system: orange enzyme preparation; assay: Effect of common blood components on the orange enzyme reaction; type: biochemical, Citrus sinensis
Protocol: The bilirubin-degrading assay as described under (A) was carried out using an orange enzyme preparation obtained as described in Example 1. […] It is to be noted that the amount of enzyme used for removing interferences can be increased, if desired, to speed up the process. […]

effect on the enzyme in the normal bilirubin-degrading assay (lime enzyme preparation [1]): no demonstrable effect
SMILES: Nc1ncnc2c1ncn2[C@@H]1O[C@H](COP(=O)(O)OP(=O)(O)O)[C@@H](O)[C@H]1O [ADP]

effect on the enzyme in the normal bilirubin-degrading assay (lime enzyme preparation [1]): no demonstrable effect
SMILES: Nc1ncnc2c1ncn2[C@@H]1O[C@H](COP(=O)(O)O)[C@@H](O)[C@H]1O [AMP]

SMILES: Nc1ncnc2c1ncn2[C@@H]1O[C@H](COP(=O)(O)OP(=O)(O)OP(=O)(O)O)[C@@H](O)[C@H]1O [ATP]
effect on the enzyme in the normal bilirubin-degrading assay (lime enzyme preparation [1]): no demonstrable effect | activity inhibited [2]: ~50%

effect on the enzyme in the normal bilirubin-degrading assay (lime enzyme preparation [1]): no demonstrable effect
SMILES: NC(=O)C1=CN([C@@H]2O[C@H](COP(=O)(O)OP(=O)(O)OC[C@H]3O[C@@H](n4cnc5c(N)ncnc54)[C@H](O)[C@@H]3O)[C@@H](O)[C@H]2O)C=CC1 [NADH]

effect on the enzyme in the normal bilirubin-degrading assay (lime enzyme preparation [1]): no demonstrable effect
SMILES: NC(=O)c1ccc[n+]([C@@H]2O[C@H](COP(=O)([O-])OP(=O)(O)OC[C@H]3O[C@@H](n4cnc5c(N)ncnc54)[C@H](O)[C@@H]3O)[C@@H](O)[C@H]2O)c1 [NAD]

effect on the rate or extent of bilirubin degradation (lime enzyme preparation [3]; at either 1.2 mM or 297 µM in a serum-based matrix): no effect
SMILES: Oc1nc(O)c2nc(O)[nH]c2n1 [Urate]

overall yield of the enzymic reaction, of the control value ([4]; elevated cholesterol): 90-95% | initial rate retarded ([4]; elevated levels, for example at 10mM): 10-20% | effect on reaction extent (lime enzyme preparation [3]; 30-40 min. incubation, serum-like matrix): not significantly affected | slow down of the initial rate of the enzymic reaction on unconjugated bilirubin (lime enzyme preparation [3]; elevated levels (cholesterol e.g. 11 mM or 400 mg/dL)): 10-20%
SMILES: CC(C)CCC[C@@H](C)[C@H]1CC[C@H]2[C@@H]3CC=C4C[C@@H](O)CC[C@]4(C)[C@H]3CC[C@]12C [cholesterol]

effect on the reaction of the orange enzyme ([4]; water-soluble serum analytes): largely unaffected
SMILES: NC(N)=O [urea]
